Laboratory results reported in PMC5057115, “Cathelicidins in the Tasmanian devil (Sarcophilus harrisii)” (Scientific Reports, 2016).
Where no end group is shown, it is not given here.

What was measured:
human red blood cells = assay type: cell-based; details: red cells of human, 24 h
Protocol: Tissue expression of devil cathelicidin prepropeptides was determined by real-time PCR on a range of secretory, immune, reproductive, gastrointestinal and respiratory tissues, as well as BLAST searches of the milk transcriptome. Opportunistic tissue samples for real-time PCR were collected from Taronga Zoo (Sydney) from devils which were subject to euthanasia due to old age and advanced disease. […] Ltd. and their antimicrobial activity against bacterial and fungal pathogens determined by broth microdilution susceptibility assay according to clinical laboratory standards institute guidelines. Antimicrobial activity was expressed as minimum inhibitory concentration (MIC). Cytotoxicity was assessed in the human cell line A549 and haemolytic activity determined against human blood. Statistical significance of peptide effect on cell survival in comparison to the untreated control was calculated using a one sample t-test. Pouch microbiome analysis was performed on swabs from the pouch of lactating and non-lactating devils to detect changes in microbe populations. Pouch swab collection was carried out in accordance with the Save the Tasmanian Devil Program and was approved by the Animal Ethics Committee of the University of Sydney (permit number 681). page 3: […] Two antibiotics, ampicillin and tetracycline, were included as a positive control for bacteria, and the […] A well containing cells and media only was used as a “no drug” control to ensure that cultures grew normally. Bacteria were subcultured on Mueller Hinton agar (MHA) or Sheep blood agar (BA) for 24 hours at 35 °C for Staphylococcus spp., Pseudomonas spp., Enterococcus spp. and E.coli, with 5% CO2 for Streptococcus spp., K.pneumoniae, P.multocida, […] Similarly, fungi were subcultured on Sabouraud agar (SAB) at 35 °C for 24 hours prior to the test. Colonies were resuspended in saline and the OD530 measured with a McFarland reader. If necessary the suspension was diluted to 0.45-0.55 McFarland units with saline. […] Assays Antimicrobial activity was expressed as minimum inhibitory concentration (MIC), which was defined as the lowest concentration of cathelicidin preventing visible growth, relative to the negative control. Colonies which grew on agar plates were also counted. Cytotoxicity Cytotoxicity was assessed in the human A549 cell line maintained in Dulbecco’s Modification of Eagle’s Medium (DMEM) supplemented with 10% foetal bovine serum (FBS), 2mM L -glutamine, 50units/mL penicillin and 50μg/mL streptomycin. […] Following incubation for a further 24 hours, cell viability was determined using alamar blue (Invitrogen) which was added to each well. […]

[1] = system: Methicillin resistant S. aureus (MRSA); assay type: cell-based, Staphylococcus aureus; details: broth microdilution (CLSI), 64 to 0.125 μg/mL, 24 h at 35 °C, human clinical isolate
Protocol: Tissue expression of devil cathelicidin prepropeptides was determined by real-time PCR on a range of secretory, immune, reproductive, gastrointestinal and respiratory tissues, as well as BLAST searches of the milk transcriptome. Opportunistic tissue samples for real-time PCR were collected from Taronga Zoo (Sydney) from devils which were subject to euthanasia due to old age and advanced disease. The mature peptides of all six devil cathelicidins were synthesised by ChinaPeptides Co. Ltd. and their antimicrobial activity against bacterial and fungal pathogens determined by broth microdilution susceptibility assay according to clinical laboratory standards institute guidelines. Antimicrobial activity was expressed as minimum inhibitory concentration (MIC). Cytotoxicity was assessed in the human cell line A549 and haemolytic activity determined against human blood. Statistical significance of peptide effect on cell survival in comparison to the untreated control was calculated using a one sample t-test. Pouch microbiome analysis was performed on swabs from the pouch of lactating and non-lactating devils to detect changes in microbe populations. Pouch swab collection was carried out in accordance with the Save the Tasmanian Devil Program and was approved by the Animal Ethics Committee of the University of Sydney (permit number 681). […]
base (YNB) for fungi, from a concentration of 64μg/mL to 0.125μg/mL in a final volume of 100 μL .
Two antibiotics, ampicillin and tetracycline, were included as a positive control for bacteria, and the antifungal drug fluconazole for fungi. A well containing cells and media only was used as a “no drug” control to ensure that cultures grew normally. […] Colonies were resuspended in saline and the OD530 measured with a McFarland reader. […] Assays Antimicrobial activity was expressed as minimum inhibitory concentration (MIC), which was defined as the lowest concentration of cathelicidin preventing visible growth, relative to the negative control. […]
DMEM and positive control of dimethylsulfoxide (DMSO) (1%) were also included. Following incubation for a further 24 hours, cell viability was determined using alamar blue (Invitrogen) which was added to each well. The plates were incubated for 24 hours, then the absorption measured at 570nm and 620nm using the Victor 3 multilabel plate reader (PerkinElmer). […] To x i city of cathelicidins was calculated according to Invitrogen recommendations and expressed as percentage cell survival compared to the untreated growth control. […]
Haemolytic activity was assessed using 10mL of human blood collected into potassium -ED T A […]

Row | Sequence | haemolysis compared with the positive control (human red blood cells) | MIC [1] [µg/mL]
1 | KRMGIFHLFWAGLRKLGNLIKNKIQQGIENFLG [Saha-CATH3] | below 7% | 
2 | KRIGLIRLIGKILRGLRRLG [Saha-CATH5] |  | 32
